test system: S6RP serine-240/244 phosphorylation in HEK293T/17 cells; assay: In vitro phospho-S6 cellular assay (pS6RP S240/244); assay type: cell-based; settings: Homo sapiens, Table 6, 2 hours, S6RP Ser240/244, read-out: pS6 (phospho-S6 cell assay data, activity level)
Summary of the method: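 HEK293T/17 cells in DMEM with 2% FCS treated with 8 compound concentrations (0.1% DMSO) for 2 h at 37 °C, then lysed. Phospho-S6RP Ser240/244 or phospho-Akt Ser473 quantified by MesoScale sandwich immunoassay with Sulfo-Tag detection; IC50 from variable-slope sigmoidal fit.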

`CCNC(=O)Nc1ccc(-c2cc(-c3cc(F)ccc3S(C)(=O)=O)nc(N3CCOC[C@@H]3C)n2)cc1` [Example 2, (S)-1-ethyl-3-(4-(6-(5-fluoro-2-(methylsulfonyl)phenyl)-2-(3-methylmorpholino)pyrimidin-4-yl)phenyl)urea] and `C[C@H]1COCCN1c1nc(-c2ccc(NC(=O)NCCO)cc2)cc(-c2cc(F)ccc2S(C)(=O)=O)n1` [Example 41, (S)-1-(4-(6-(5-fluoro-2-(methylsulfonyl)phenyl)-2-(3-methylmorpholino)pyrimidin-4-yl)phenyl)-3-(2-hydroxyethyl)urea] cannot be ordered by IC50: under 100 nM for the first, under 100 nM for the second.

`C[C@H]1COCCN1c1nc(-c2ccc(NC(=O)NC3CC3)cc2)cc(-c2ccccc2S(C)(=O)=O)n1` [Example 4, (S)-1-cyclopropyl-3-(4-(2-(3-methylmorpholino)-6-(2-(methylsulfonyl)phenyl)pyrimidin-4-yl)phenyl)urea] and `C[C@H]1COCCN1c1cc(-c2ccccc2S(C)(=O)=O)nc(-c2ccc(NC(=O)NC3CC3)cc2)n1` [Example 6, (S)-1-cyclopropyl-3-(4-(4-(3-methylmorpholino)-6-(2-(methylsulfonyl)phenyl)pyrimidin-2-yl)phenyl)urea] cannot be ordered by IC50: under 100 nM for the first, under 100 nM for the second.

First: C[C@H]1COCCN1c1cc(-c2ccc(F)nc2)nc(-c2ccc(NC(=O)NC3CC3)cc2)n1 [Example 21, (S)-1-cyclopropyl-3-(4-(4-(6-fluoropyridin-3-yl)-6-(3-methylmorpholino)pyrimidin-2-yl)phenyl)urea]
Second: C[C@H]1COCCN1c1cc(-c2cncc(F)c2)nc(-c2ccc(NC(=O)NC3CC3)cc2)n1 [Example 23, (S)-1-cyclopropyl-3-(4-(4-(5-fluoropyridin-3-yl)-6-(3-methylmorpholino)pyrimidin-2-yl)phenyl)urea]
The IC50 of the first is lower: under 100 nM for the first, 100 to 1000 nM for the second.

`C[C@H]1COCCN1c1nc(-c2ccc(NC(=O)NC3CC3)cc2)cc(-c2cc(F)ccc2S(C)(=O)=O)n1` [Example 40, (S)-1-cyclopropyl-3-(4-(6-(5-fluoro-2-(methylsulfonyl)phenyl)-2-(3-methylmorpholino)pyrimidin-4-yl)phenyl)urea] and `C[C@H]1COCCN1c1nc(-c2ccc(NC(=O)N[C@H]3CCC[C@@H]3O)cc2)cc(-c2cc(F)ccc2S(C)(=O)=O)n1` [Example 76, 1-(4-(6-(5-fluoro-2-(methylsulfonyl)phenyl)-2-((S)-3-methylmorpholino)pyrimidin-4-yl)phenyl)-3-((1S,2S)-2-hydroxycyclopentyl)urea] cannot be ordered by IC50: under 100 nM for the first, under 100 nM for the second.

First: C[C@H]1COCCN1c1cc(-c2ccccn2)nc(-c2ccc(NC(=O)NC3CC3)cc2)n1 [Example 42, (S)-1-cyclopropyl-3-(4-(4-(3-methylmorpholino)-6-(pyridin-2-yl)pyrimidin-2-yl)phenyl)urea]
Second: C[C@H]1COCCN1c1cc(-c2ccccn2)nc(-c2ccc(NC(=O)NCCO)cc2)n1 [Example 43, (S)-1-(2-hydroxyethyl)-3-(4-(4-(3-methylmorpholino)-6-(pyridin-2-yl)pyrimidin-2-yl)phenyl)urea]
The IC50 of the first is higher: 100 to 1000 nM for the first, under 100 nM for the second. The second is the more potent here.

`C[C@H]1COCCN1c1nc(-c2ccc(NC(=O)NCCF)cc2)cc(-c2cc(F)ccc2S(C)(=O)=O)n1` [Example 44, (S)-1-(4-(6-(5-fluoro-2-(methylsulfonyl)phenyl)-2-(3-methylmorpholino)pyrimidin-4-yl)phenyl)-3-(2-fluoroethyl)urea] and `C[C@H]1COCCN1c1nc(-c2ccc(NC(=O)NCCCO)cc2)cc(-c2cc(F)ccc2S(C)(=O)=O)n1` [Example 64, (S)-1-(4-(6-(5-fluoro-2-(methylsulfonyl)phenyl)-2-(3-methylmorpholino)pyrimidin-4-yl)phenyl)-3-(3-hydroxypropyl)urea] cannot be ordered by IC50: under 100 nM for the first, under 100 nM for the second.

`C[C@H]1COCCN1c1nc(-c2ccc(NC(=O)NC3CC3)cc2)cc(-c2cccnc2S(C)(=O)=O)n1` [Example 46, (S)-1-cyclopropyl-3-(4-(2-(3-methylmorpholino)-6-(2-(methylsulfonyl)pyridin-3-yl)pyrimidin-4-yl)phenyl)urea] and `C[C@H]1COCCN1c1nc(-c2ccc(NC(=O)NCC(F)F)cc2)cc(-c2cc(F)ccc2S(C)(=O)=O)n1` [Example 47, (S)-1-(2,2-difluoroethyl)-3-(4-(6-(5-fluoro-2-(methylsulfonyl)phenyl)-2-(3-methylmorpholino)pyrimidin-4-yl)phenyl)urea] cannot be ordered by IC50: under 100 nM for the first, under 100 nM for the second.

`C[C@H]1COCCN1c1ccnc(-c2ccc(NC(=O)Nc3ccncc3)cc2)n1` [Example 60, (S)-1-(4-(4-(3-methylmorpholino)pyrimidin-2-yl)phenyl)-3-(pyridin-4-yl)urea] and `O=C(Nc1ccncc1)Nc1ccc(-c2nccc(N3CC4CCC(C3)O4)n2)cc1` [Example 61, 1-(4-(4-(8-oxa-3-azabicyclo[3.2.1]octan-3-yl)pyrimidin-2-yl)phenyl)-3-(pyridin-4-yl)urea] cannot be ordered by IC50: under 100 nM for the first, under 100 nM for the second.

`CS(=O)(=O)c1ccc(F)cc1-c1cc(-c2ccc(NC(=O)NCCO)cc2)nc(N2CCOCC2)n1` [Example 62, 1-(4-(6-(5-fluoro-2-(methylsulfonyl)phenyl)-2-morpholinopyrimidin-4-yl)phenyl)-3-(2-hydroxyethyl)urea] was tested, and the IC50 was 100 to 1000 nM.

From patent publication US9249129B2, “Morpholino substituted urea derivatives as mTOR inhibitors” (CELLZOME LIMITED, priority 2010, dated 2016)
